US9957271B2, “Substituted bicyclic aza-heterocycles and analogues as sirtuin modulators” (GlaxoSmithKline, LLC, priority 2012, dated 2018)
Like-named read-outs stand apart in the source and are kept apart here.

Molecular target: T1, SIRT1 (Homo sapiens, UniProt Q96EB6)
T1 sequence (Q96EB6 1-747): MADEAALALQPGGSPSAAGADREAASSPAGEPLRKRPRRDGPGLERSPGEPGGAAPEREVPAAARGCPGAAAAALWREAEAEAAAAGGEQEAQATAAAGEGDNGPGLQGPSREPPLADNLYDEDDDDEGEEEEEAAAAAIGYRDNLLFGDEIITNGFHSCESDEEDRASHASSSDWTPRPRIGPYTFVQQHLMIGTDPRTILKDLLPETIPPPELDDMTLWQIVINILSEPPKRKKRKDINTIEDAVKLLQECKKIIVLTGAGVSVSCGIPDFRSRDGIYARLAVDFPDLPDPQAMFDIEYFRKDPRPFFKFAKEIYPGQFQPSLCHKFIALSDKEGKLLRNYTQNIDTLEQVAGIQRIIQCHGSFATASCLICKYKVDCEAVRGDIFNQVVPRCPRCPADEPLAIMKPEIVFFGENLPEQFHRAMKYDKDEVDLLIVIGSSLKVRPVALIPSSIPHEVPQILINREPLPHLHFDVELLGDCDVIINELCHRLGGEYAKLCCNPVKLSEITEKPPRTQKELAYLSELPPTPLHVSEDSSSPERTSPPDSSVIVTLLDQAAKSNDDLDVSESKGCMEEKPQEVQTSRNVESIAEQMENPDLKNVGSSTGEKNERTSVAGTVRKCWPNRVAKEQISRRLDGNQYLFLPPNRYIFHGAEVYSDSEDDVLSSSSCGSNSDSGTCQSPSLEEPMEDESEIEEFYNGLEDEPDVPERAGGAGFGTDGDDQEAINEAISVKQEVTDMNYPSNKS
Assay: Trp mass spectrometry assay of SIRT1 activity
Format: biochemical
Settings: for Emax: read-out: Trp % Fold Act; for Trp EC1.5 (μM): concentration giving 150% activation of SIRT1
Method in brief: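 His-tagged SIRT1 expressed in E. coli BL21(DE3), 10 nM, incubated 25 min at 25° C. with 0.5 μM Ac-RHKK(Ac)W-NH2 peptide and 120 μM βNAD+ in 50 mM HEPES pH 7.5, […], 1 mM DTT, 0.05% BSA; formic acid stop. OAADPR or deacetylated peptide measured by mass spectrometry; EC1.5 and percent maximum activation versus DMSO control.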

[1] = Trp assay, percent maximum fold activation
[2] = percent maximum fold activation of SIRT1, Trp peptide substrate

| Compound | Emax [1] [%] | Trp EC1.5 (μM) (Trp assay) | Emax [2] [%] |
| --- | --- | --- | --- |
| O=C(Nc1ccccn1)c1cnc2ccc(N3CC[C@H](O)C3)nn12 [Compound 981] | < 350 | – | – |
| CN(C)c1cccc(NC(=O)c2cnc3ccc(N4CC[C@H](F)C4)nn23)n1 [Compound 911] | ≥ 350 | A (EC1.5<1 μM) | – |
| CN1CCN(c2ccc3ncc(C(=O)Nc4ccncc4F)n3n2)CC1 [Compound 949] | < 350 | – | – |
| Cc1nc2ccc(N3CC[C@H](N(C)C)C3)nn2c1C(=O)Nc1cnccn1 [Compound 871] | < 350 | B (EC1.5 1-25 μM) | – |
| O=C(Nc1ccc(F)cn1)c1cnc2ccc(N3CCCC3)nn12 [Compound 897] | < 350 | C (EC1.5>25 μM) | – |
| CC1CCCN1c1ccn2ncc(C(=O)Nc3cccnc3)c2n1 (centres unmarked) [Compound 1044] | – | – | ≥ 350 |
| O=C(Nc1cccnn1)c1cnc2ccc(N3CC[C@H](F)C3)nn12 [Compound 856] | < 350 | B (EC1.5 1-25 μM) | – |
| O=C(Nc1ccc(F)cn1)c1cnc2ccc(N3CC(F)(F)C3)nn12 [Compound 914] | < 350 | C (EC1.5>25 μM) | – |
| C[C@@H]1CN(c2ccc3ncc(C(=O)Nc4cncc(F)c4)n3n2)CCO1 [Compound 1004] | – | – | ≥ 350 |
| Cc1ccc(NC(=O)c2c(C)nc3c(OC[C@H](O)CO)cc(-c4ccccc4C(F)(F)F)nn23)cn1 [Compound 865] | ≥ 350 | A (EC1.5<1 μM) | – |
| O=C(Nc1cccnn1)c1cnn2ccc(N3CCC(C(F)(F)F)CC3)nc12 [Compound 1062] | – | – | ≥ 350 |
| O=C(Nc1cccnn1)c1cnc2ccc(N3CC(F)(F)C3)nn12 [Compound 916] | < 350 | C (EC1.5>25 μM) | – |
| COc1nccc(NC(=O)c2c(C)nn3ccc(N4CCC[C@@H]4C(F)(F)F)nc23)n1 [Compound 1085] | – | – | ≥ 350 |
| CC1(C)CCN(c2ccc3ncc(C(=O)Nc4ccccn4)n3n2)C1 [Compound 952] | ≥ 350 | – | – |
| CN1CCN(c2ccc3ncc(C(=O)Nc4cncc(F)c4)n3n2)CC1 [Compound 951] | < 350 | – | – |
| Cc1nc2ccc(N3CCC(C(F)(F)F)C3)nn2c1C(=O)Nc1cccnn1 (centres unmarked) [Compound 998] | ≥ 350 | – | – |
| C[C@H]1CCCN1c1ccc2ncc(C(=O)Nc3cnccn3)n2n1 [Compound 1054] | – | – | < 350 |
| O=C(Nc1ccc(F)cn1)c1cnc2ccc(-c3cccc(OC[C@H](O)CO)c3)nn12 [Compound 884] | < 350 | B (EC1.5 1-25 μM) | – |
| CO[C@H]1CCN(c2ccc3ncc(C(=O)Nc4ccc(F)cn4)n3n2)C1 [Compound 935] | < 350 | B (EC1.5 1-25 μM) | – |
| O=C(Nc1ccc(F)cn1)c1cnc2ccc(N3CCC[C@H](F)C3)nn12 [Compound 988] | ≥ 350 | – | – |

| Compound | Emax [1] [%] | Trp EC1.5 (μM) (Trp assay) | Emax [2] [%] |
| --- | --- | --- | --- |
| O=C(Nc1cccnn1)c1cnn2ccc(N3CCC(C(F)(F)F)C3)nc12 (centres unmarked) [Compound 1014] | – | – | ≥ 350 |
| O=C(Nc1cnccn1)c1cnc2ccc(N3CCC(F)(F)C3)nn12 [Compound 905] | < 350 | B (EC1.5 1-25 μM) | – |
| Cc1cccc(NC(=O)c2cnc3ccc(-c4cccc(OC[C@H](O)CO)c4)nn23)n1 [Compound 848] | ≥ 350 | A (EC1.5<1 μM) | – |
| Cc1cncc(NC(=O)c2cnn3ccc(N4CCC(C(F)(F)F)CC4)nc23)c1 [Compound 1073] | – | – | ≥ 350 |
| Cc1nc2ccc(N3CC[C@H](F)C3)nn2c1C(=O)Nc1ccc(F)cn1 [Compound 844] | < 350 | B (EC1.5 1-25 μM) | – |
| Cc1nc2ccc(N3CC[C@H](N(C)C)C3)nn2c1C(=O)Nc1ncccn1 [Compound 885] | < 350 | B (EC1.5 1-25 μM) | – |
| O=C(Nc1cncc(F)c1)c1cnc2ccc(N3CCC(F)(F)CC3)nn12 [Compound 929] | ≥ 350 | B (EC1.5 1-25 μM) | – |
| O=C(Nc1cncc(F)c1)c1cnn2ccc(N3CCCCC3C(F)(F)F)nc12 (centres unmarked) [Compound 1010] | – | – | ≥ 350 |
| Cn1ccc(NC(=O)c2cnc3ccc(N4CC[C@H](F)C4)nn23)n1 [Compound 891] | ≥ 350 | B (EC1.5 1-25 μM) | – |
| O=C(Nc1cncc(F)c1)c1cnc2ccc(N3CC[C@H](O)C3)nn12 [Compound 985] | < 350 | – | – |
| Cc1nc2ccc(N3CC[C@H](N(C)C)C3)nn2c1C(=O)Nc1cccnc1 [Compound 877] | < 350 | B (EC1.5 1-25 μM) | – |
| Cc1nc2ccc(N3CCC(F)(F)C3)nn2c1C(=O)Nc1cccnn1 [Compound 1005] | – | – | ≥ 350 |
| O=C(Nc1ccc(C(F)(F)F)nc1)c1cnc2ccc(N3CC[C@H](F)C3)nn12 [Compound 919] | < 350 | C (EC1.5>25 μM) | – |
| O=C(Nc1ccncc1F)c1cnc2ccc(-c3cccc(OC[C@H](O)CO)c3)nn12 [Compound 883] | < 350 | A (EC1.5<1 μM) | – |
| O=C(Nc1cccnc1)c1cnn2ccc(N3CCCCC3C(F)(F)F)nc12 (centres unmarked) [Compound 945, N-(pyridin-3-yl)-5-(2-(trifluoromethyl)piperidin-1-yl)pyrazolo[1,5-a]pyrimidine-3-carboxamide] | ≥ 350 | A (EC1.5<1 μM) | – |
| Cc1nc2c(OC[C@H](O)CO)cc(-c3ccccc3C(F)(F)F)nn2c1C(=O)Nc1cccnc1 [Compound 862] | ≥ 350 | A (EC1.5<1 μM) | – |
| Cc1cc(NC(=O)c2cnc3ccc(N4CC[C@H](F)C4)nn23)nc(C)n1 [Compound 893] | < 350 | C (EC1.5>25 μM) | – |
| CN(C)[C@H]1CCN(c2ccc3ncc(C(=O)Nc4cccnn4)n3n2)C1 [Compound 879] | < 350 | B (EC1.5 1-25 μM) | – |
| Cc1nc2ccc(N3CCC(F)(F)C3)nn2c1C(=O)Nc1cccnc1 [Compound 980, 6-(3,3-difluoropyrrolidin-1-yl)-2-methyl-N-(pyridin-3-yl)imidazo[1,2-b]pyridazine-3-carboxamide] | ≥ 350 | – | – |
| O=C(Nc1cnccn1)c1cnn2ccc(N3CCC(C(F)(F)F)CC3)nc12 [Compound 1061] | – | – | ≥ 350 |

| Compound | Emax [1] [%] | Trp EC1.5 (μM) (Trp assay) | Emax [2] [%] |
| --- | --- | --- | --- |
| COc1nccc(NC(=O)c2c(C)nn3ccc(N4CCC[C@H]4C(F)(F)F)nc23)n1 [Compound 1049] | – | – | ≥ 350 |
| Cc1nc2ccc(N3CC[C@H](F)C3)nn2c1C(=O)Nc1cnccn1 [Compound 845] | < 350 | B (EC1.5 1-25 μM) | – |
| O=C(Nc1cnccn1)c1cnc2ccc(N3CC[C@H](F)C3)nn12 [Compound 853] | < 350 | C (EC1.5>25 μM) | – |
| C[C@H]1CCCN1c1ccc2ncc(C(=O)Nc3ccncn3)n2n1 [Compound 1057] | – | – | < 350 |
| O=C(Nc1cccnc1)c1cnc2ccc(N3CCCC3)nn12 [Compound 896] | < 350 | B (EC1.5 1-25 μM) | – |
| CN(C)[C@H]1CCN(c2ccc3ncc(C(=O)Nc4cccnc4)n3n2)C1 [Compound 868] | < 350 | B (EC1.5 1-25 μM) | – |
| Cc1nc2ccc(N3CCCC(F)(F)C3)nn2c1C(=O)Nc1cccnn1 [Compound 994] | ≥ 350 | – | – |
| O=C(Nc1cnccn1)c1cnn2ccc(N3CCC[C@@H]3C(F)(F)F)nc12 [Compound 1078] | – | – | ≥ 350 |
| Cc1nc(NC(=O)c2cnc3ccc(N4CCCC4C(F)(F)F)nn23)sc1C (centres unmarked) [Compound 969] | ≥ 350 | – | – |
| O=C(Nc1ccccn1)c1cnn2ccc(N3CCC(C(F)(F)F)CC3)nc12 [Compound 1060] | – | – | ≥ 350 |
| Cc1nn2ccc(N3CCC[C@@H]3C(F)(F)F)nc2c1C(=O)Nc1cncc(F)c1 [Compound 1069] | – | – | ≥ 350 |
| O=C(Nc1ncccn1)c1cnc2ccc(N3CC[C@H](F)C3)nn12 [Compound 854] | < 350 | B (EC1.5 1-25 μM) | – |
| O=C(Nc1ccncc1F)c1cnc2ccc(N3CCCC3)nn12 [Compound 898] | < 350 | C (EC1.5>25 μM) | – |
| CN1CCc2ncc(NC(=O)c3cnc4ccc(N5CCCC5C(F)(F)F)nn34)cc2C1 (centres unmarked) [Compound 1094] | – | – | ≥ 350 |
| O=C(Nc1cncnc1)c1cnc2ccc(N3CC[C@H](F)C3)nn12 [Compound 888] | < 350 | C (EC1.5>25 μM) | – |
| Cc1nc2ccc(N3CC[C@H](N(C)C)C3)nn2c1C(=O)Nc1cccnn1 [Compound 880] | < 350 | B (EC1.5 1-25 μM) | – |
| CC1(C)CCN(c2ccc3ncc(C(=O)Nc4ccncc4F)n3n2)C1 [Compound 960] | < 350 | – | – |
| Cc1nc2ccc(N3CC[C@H](F)C3)nn2c1C(=O)Nc1cccnc1 [Compound 841] | ≥ 350 | A (EC1.5<1 μM) | – |
| CN(C)c1cccc(NC(=O)c2cnc3ccc(-c4cccc(OC[C@H](O)CO)c4)nn23)n1 [Compound 876] | ≥ 350 | A (EC1.5<1 μM) | – |
| O=C(Nc1ccncn1)c1cnc2ccc(N3CCC(F)(F)CC3)nn12 [Compound 964] | < 350 | – | – |
